{
  "source": "paper PMC4076079",
  "about": "“Selective inhibitors of a PAF biosynthetic enzyme lysophosphatidylcholine acyltransferase 2” (Journal of Lipid Research, 2014)",
  "key": {"[1]": {"system": "RAW-mLPCAT2 cells", "assay": "cell-based assay: A23187-induced PAF production, PAF and lyso-PAF by LC-MS/MS", "design": "species or system mouse", "conditions": "for IC50: Mus musculus", "description": "RAW-mLPCAT2 cells and peritoneal macrophages were seeded in 24-well plates (4 × 10^6 cells/well) for 24 or 2 h, respectively, before treatment. RAW-mLPCAT2 cells were stimulated with 5 μM A23187 for 5 min after a 1 h treatment with the compounds. Peritoneal macrophages were preincubated with 100 ng/ml LPS for 18 h, treated with the compounds for 1 h, and stimulated with 5 μM A23187 for 5 min. To analyze cellular PAF levels, lipids were extracted with 500 μl methanol containing d4-PAF and d4-lyso-PAF as internal standards. Each sample was submitted to solid phase extraction using an Oasis HLB 96-well cartridge cluster (Waters), and PAF and lyso-PAF were measured by LC-MS/MS as previously described ([13]).\nChromatography was performed using an Acquity™ Ultra-performance LC system (Waters) coupled to a TSQ Vantage triple stage quadrupole mass spectrometer (Thermo Scientific) with a HESI-II electrospray ionization source ([13]). Phospholipids were separated on BEH C8 columns (1.7 μm, 2.1 × 30 mm or 1 × 100 mm; Waters) for the analysis of assay products or the composition of cellular PAF and lyso-PAF, respectively. The mobile phase contained 20 mM aqueous ammonium bicarbonate and acetonitrile. The extracts from peritoneal macrophages were separated on a Kinetex C8 column (1.7 μm, 2.1 × 100 mm; Phenomenex, Torrance, CA) by a gradient elution with 0.05% formic acid-water and acetonitrile, using the Nexera X2 system and LCMS-8080 mass spectrometer (Shimadzu, Kyoto, Japan) ([13]). Lyso-PAF, d4-PAF, and d31-DPPC were identified by the choline fragment (m/z 184) as a product ion of selected reaction monitoring in the positive ion mode. Nonlabeled PAF and d4-16:0/20:4 alkyl-PC were determined by fatty acid anions of sn-2 composition (m/z 59 and 303, respectively) in the negative ion mode. Mass spectra were processed using the Xcalibur 2.0 (Thermo Scientific) or LabSolutions 5.50 (Shimadzu) software. Signal intensities were determined relative to the internal standard or as the percentage of the positive control. […]\nStep 9 screening: cell-based assay\nRAW-mLPCAT2 cells were treated with compounds for 1 h and analyzed after 5 min stimulation with A23187. The assays were performed with 0, 0.2, 0.6, 20, and 50 or 60 µM of compound. PAF concentration was measured by LC-MS/MS.\n(§1) The data were normalized to each positive control (100% activation). Percentage inhibition or IC50 were determined in each screening step. To assess screening quality, the percentage coefficient of variance and the Z’ factor was calculated for each plate or each assay as described previously (2)."}, "[2]": {"assay": "cell viability assay (WST-8)", "type": "cell-based", "conditions": "mouse, RAW264.7 cells (wild-type), 36 h treatment, data not shown, read-out: cytotoxicity IC50 (cell viability)", "description": "(§2) Cell viability was measured using a modified MTT [3-(4,5-dimethylthiazol-2-yl)-2,5-diphenyltetrazolium bromide] dye reduction assay using WST-8 [2-(2-methoxy-4-nitrophenyl)-3-(4-nitrophenyl)-5-(2,4-disulfophenyl)-2H-tetrazolium, monosodium salt; Dojindo Molecular Technologies, Inc., Kumamoto, Japan] according to the manufacturer’s instructions. […] or RAW-mLPCAT2 cells were seeded in 96-well plates (1 × 10^4 cells/well) for 8 h and then treated with a compound for 36 h. WST-8 was added for another 2 h and the 450 nm absorbance was measured using a microplate reader (Bio-Rad). Cell viability was expressed as a percentage of vehicle-treated control values. To observe the effects of the incubation time on cell viability, 0.4 × 10^4 RAW-mLPCAT2 cells were treated with compounds for 1 or 6 h before the WST-8 assay.\n(§3) Step 8 screening: cell viability assay\n(§4) Wild-type RAW264.7 cells and RAW264.7 cells transfected with mLPCAT2 or control plasmid were used. Cells were cultured for 36 h with 0, 0.06, 0.2, 0.6, 2, 6, and 20 µM of compounds in 96-well plates and assayed for viability with WST-8. […]\nas §1"}, "[3]": {"biological_target": "T1, mLPCAT1 (Mus musculus, UniProt Q3TFD2)", "T1 construct": "expressed in transfected cells; host or cells: CHO-S-PAFR cells, microsomal fraction", "T1 sequence (Q3TFD2 1-534)": "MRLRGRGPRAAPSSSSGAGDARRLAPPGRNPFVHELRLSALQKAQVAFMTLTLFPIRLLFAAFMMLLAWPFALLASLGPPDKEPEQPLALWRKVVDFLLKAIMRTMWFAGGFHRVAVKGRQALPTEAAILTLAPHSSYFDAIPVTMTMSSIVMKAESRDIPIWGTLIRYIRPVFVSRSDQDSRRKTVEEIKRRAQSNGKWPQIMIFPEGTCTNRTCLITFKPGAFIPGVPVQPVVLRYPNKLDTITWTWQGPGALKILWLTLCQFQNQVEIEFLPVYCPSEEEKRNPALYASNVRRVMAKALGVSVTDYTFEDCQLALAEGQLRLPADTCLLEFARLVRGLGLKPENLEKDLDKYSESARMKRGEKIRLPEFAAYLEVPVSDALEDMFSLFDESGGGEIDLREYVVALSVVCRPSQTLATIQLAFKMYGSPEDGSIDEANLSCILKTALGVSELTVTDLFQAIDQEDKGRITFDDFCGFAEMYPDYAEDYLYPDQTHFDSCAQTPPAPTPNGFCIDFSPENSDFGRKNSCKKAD", "assay": "acyltransferase activity assay, DPPC product", "type": "biochemical", "conditions": "20 μM compound; microsomal fractions of nonstimulated CHO-S-PAFR cells; n = 3, mean ± SEM", "description": "Microsomal protein fractions (0.5 μg) supplemented with the indicated compound concentrations were added to the reaction mixture containing 100 mM Tris-HCl (pH 7.4), 1 μM CaCl2, 0.015% Tween-20, and two substrates. For acetyltransferase activity, the substrates were 1 mM acetyl-CoA and 5 μM d4-lyso-PAF; for the acyltransferase activity of LPCAT1 or LPCAT2, the substrates were, respectively, palmitoyl-CoA and d31-16:0 LPC or arachidonoyl-CoA and d4-lyso-PAF (all 5 μM). Each lysophospholipid contained fatty acid at the sn-1 position. After incubation at 37°C for 5 min, the reactions were stopped by adding 300 μl methanol containing 17:0 LPC or 14:0/14:0 PC as an internal standard. Deuterium-labeled products were analyzed by LC-MS/MS (Waters, Milford, MA and Thermo Scientific, Waltham, MA). […]\narachidonoyl-CoA, 5 µM; palmitoyl-CoA, 5 µM; d4-lyso-PAF, 5 µM; and d31-LPC, 5 µM. […]\ndeuterium-labeled products were measured by LC-MS/MS. […]\nStep 7 screening: species-specific differences\nTo evaluate the effects on the activity of mouse or human LPCAT1 and LPCAT2, each microsomal fraction was obtained using CHO-S-PAFR cells with or without mcPAF (200 nM) stimulation for 5 min. Acetyltransferase and acyltransferase assays were performed with 20 µM of each compound. Percentage inhibition was calculated in each"}, "[4]": {"system": "RAW-mLPCAT2 cells", "assay": "cell viability assay (WST-8)", "type": "cell-based, mouse", "conditions": "Mus musculus, 1 h pretreatment", "description": "as §2, §3, §4, §1"}, "[5]": {"conditions": "1 h pretreatment, 5 μM A23187 for 5 min"}, "[6]": {"conditions": "screening step 9 (n = 2), 1 h compound, 5 min A23187, read-out: IC50, A23187-induced PAF production"}},
  "data": [
    {"smiles": "CC(C)OC(=O)c1ccc(N2C(=O)C(Cl)=C(Cl)C2=O)cc1", "note": "[TSI-01, propan-2-yl 4-(3,4-dichloro-2,5-dioxopyrrol-1-yl)benzoate]", "values": [
      {"measurement": "A23187-induced PAF production", "setting": "[1]; [5]", "value": "suppressed"},
      {"measurement": "lyso-PAF level", "setting": "[1]; [5]", "value": "increased"},
      {"measurement": "IC50", "setting": "[1]; 1 h pretreatment, 5 μM A23187 for 5 min, Fig. 4, three independent experiments, read-out: IC50, inhibition of PAF production", "value": 38.8, "unit": "µM"},
      {"measurement": "IC50", "setting": "[1]; [6]", "value": 28.2, "unit": "µM"},
      {"measurement": "IC50 at 36 h", "setting": "[2]", "value": "> 20", "unit": "µM"},
      {"measurement": "percentage inhibition, product DPPC, mLPCAT1", "setting": "[3]", "value": "28.2 ± 4.0", "unit": "percentage"},
      {"measurement": "IC50", "setting": "[4]", "value": "> 60", "unit": "µM"}
    ]},
    {"smiles": "CC(C)OC(=O)c1ccc(N2C(=O)C(Cl)=C(Nc3ccccc3O)C2=O)cc1", "note": "[TSI-07]", "values": [
      {"measurement": "A23187-induced PAF production", "setting": "[1]; [5]", "value": "suppressed"},
      {"measurement": "lyso-PAF level", "setting": "[1]; [5]", "value": "decreased"},
      {"measurement": "IC50 at 36 h", "setting": "[2]", "value": "> 20", "unit": "µM"},
      {"measurement": "percentage inhibition, product DPPC, mLPCAT1", "setting": "[3]", "value": "36.3 ± 5.7", "unit": "percentage"},
      {"measurement": "IC50", "setting": "[4]", "value": "> 60", "unit": "µM"}
    ]},
    {"smiles": "CCCCOC(=O)c1ccc(N2C(=O)C(Cl)=C(Cl)C2=O)cc1", "note": "[TSI-11, butyl 4-(3,4-dichloro-2,5-dioxopyrrol-1-yl)benzoate]", "values": [
      {"measurement": "A23187-induced PAF production", "setting": "[1]; [5]", "value": "suppressed"},
      {"measurement": "lyso-PAF level", "setting": "[1]; [5]", "value": "not changed"},
      {"measurement": "IC50 at 36 h", "setting": "[2]", "value": "> 20", "unit": "µM"},
      {"measurement": "percentage inhibition, product DPPC, mLPCAT1", "setting": "[3]", "value": "12.2 ± 20.5", "unit": "percentage"},
      {"measurement": "IC50", "setting": "[4]", "value": "> 60", "unit": "µM"}
    ]},
    {"smiles": "O=C1C(Cl)=C(N2CCOCC2)C(=O)N1c1ccc(Oc2ccccc2)cc1", "note": "[TSI-02, 3-chloro-4-morpholin-4-yl-1-(4-phenoxyphenyl)pyrrole-2,5-dione]", "values": [
      {"measurement": "IC50", "setting": "[1]; [6]", "value": 23.6, "unit": "µM"}
    ]},
    {"smiles": "CCCOC(=O)c1ccc(N2C(=O)C(Cl)=C(Cl)C2=O)cc1", "note": "[TSI-10]", "values": [
      {"measurement": "A23187-induced PAF production", "setting": "[1]; [5]", "value": "suppressed"},
      {"measurement": "lyso-PAF level", "setting": "[1]; [5]", "value": "increased"},
      {"measurement": "IC50 at 36 h", "setting": "[2]", "value": "> 20", "unit": "µM"},
      {"measurement": "percentage inhibition, product DPPC, mLPCAT1", "setting": "[3]", "value": "14.8 ± 10.9", "unit": "percentage"},
      {"measurement": "IC50", "setting": "[4]", "value": "> 60", "unit": "µM"}
    ]}
  ]
}
